According to patent US20130102595A1 (Curis, Inc., priority 2011, published 2013):

What was measured:
[1] = tested on: SW1990; assay: Cell proliferation assay (CellTiter-Glo); type: cell-based; conditions: Homo sapiens, Pancreas, 72 hours, 0.5% fetal bovine serum, read-out: antiproliferative activity IC50, SW1990
Method: (§1) Cell Proliferation Assay:
(§2) Cancer cell lines were plated at 5,000 to 10,000 per well in 96-well flat bottomed plates with various concentration of compounds. The cells were incubated with compounds for 72 hours in the presence of 0.5% of fetal bovine serum. Growth inhibition was accessed by adenosine triphosphate (ATP) content assay using Promega CellTiter-Glo kit. Promega CellTiter-Glo kit is an ATP monitoring system based on firefly luciferase. Briefly, 16 μl of mammalian cell lysis and substrate solution was added to 84 μl of culture medium per well to lyse the cells and stabilize the ATP. The mixture was shaken and incubated for 30 minutes and subsequently the luminescence was measured.

[2] = tested on: MiaPaca1; assay: Cell proliferation assay (CellTiter-Glo); type: cell-based; conditions: Pancreas; 72 hours, 0.5% fetal bovine serum; read-out: antiproliferative activity IC50, MiaPaca1
Method: as §1, §2

[3] = tested on: CaPan2; assay: Cell proliferation assay (CellTiter-Glo); type: cell-based; conditions: Homo sapiens, Capan-2; Pancreas; 72 hours, 0.5% fetal bovine serum; read-out: antiproliferative activity IC50, CaPan2
Method: as §1, §2

[4] = tested on: CaPan1; assay: Cell proliferation assay (CellTiter-Glo); type: cell-based; conditions: Homo sapiens, CAPAN-1; Pancreas; 72 hours, 0.5% fetal bovine serum; read-out: antiproliferative activity IC50, CaPan1
Method: as §1, §2

[5] = tested on: Calu6; assay: Cell proliferation assay (CellTiter-Glo); type: cell-based; conditions: Homo sapiens, Calu-6; NSCLC; 72 hours, 0.5% fetal bovine serum; read-out: antiproliferative activity IC50, Calu6
Method: as §1, §2

[6] = tested on: PANC-1; assay: Cell proliferation assay (CellTiter-Glo); type: cell-based; conditions: Homo sapiens, Pancreas, 72 hours, 0.5% fetal bovine serum, read-out: antiproliferative activity IC50, PANC-1
Method: as §1, §2

[7] = tested on: CFPAC-1; assay: Cell proliferation assay (CellTiter-Glo); type: cell-based; conditions: Homo sapiens, Pancreas, 72 hours, 0.5% fetal bovine serum, read-out: antiproliferative activity IC50, CFPAC-1
Method: as §1, §2

[8] = tested on: WiDr; assay: Cell proliferation assay (CellTiter-Glo); type: cell-based; conditions: Homo sapiens, Colon, 72 hours, 0.5% fetal bovine serum, read-out: antiproliferative activity IC50, WiDr
Method: as §1, §2

[9] = tested on: MDA-MB-231; assay: Cell proliferation assay (CellTiter-Glo); type: cell-based; conditions: Homo sapiens, Breast, 72 hours, 0.5% fetal bovine serum, read-out: antiproliferative activity IC50, MDA-MB-231
Method: as §1, §2

[10] = molecular target: T1, PI3Kα (p110α/p85α) (Homo sapiens, UniProt P42336); assay: PI3Kα ADP-Glo assay; type: biochemical; conditions: 20 μM PIP2, 10 μM ATP, 30 minutes
T1 construct: GST (N); made in house; host or cells: Baculovirus-infected Sf9 cells
T1 sequence (P42336 whole entry): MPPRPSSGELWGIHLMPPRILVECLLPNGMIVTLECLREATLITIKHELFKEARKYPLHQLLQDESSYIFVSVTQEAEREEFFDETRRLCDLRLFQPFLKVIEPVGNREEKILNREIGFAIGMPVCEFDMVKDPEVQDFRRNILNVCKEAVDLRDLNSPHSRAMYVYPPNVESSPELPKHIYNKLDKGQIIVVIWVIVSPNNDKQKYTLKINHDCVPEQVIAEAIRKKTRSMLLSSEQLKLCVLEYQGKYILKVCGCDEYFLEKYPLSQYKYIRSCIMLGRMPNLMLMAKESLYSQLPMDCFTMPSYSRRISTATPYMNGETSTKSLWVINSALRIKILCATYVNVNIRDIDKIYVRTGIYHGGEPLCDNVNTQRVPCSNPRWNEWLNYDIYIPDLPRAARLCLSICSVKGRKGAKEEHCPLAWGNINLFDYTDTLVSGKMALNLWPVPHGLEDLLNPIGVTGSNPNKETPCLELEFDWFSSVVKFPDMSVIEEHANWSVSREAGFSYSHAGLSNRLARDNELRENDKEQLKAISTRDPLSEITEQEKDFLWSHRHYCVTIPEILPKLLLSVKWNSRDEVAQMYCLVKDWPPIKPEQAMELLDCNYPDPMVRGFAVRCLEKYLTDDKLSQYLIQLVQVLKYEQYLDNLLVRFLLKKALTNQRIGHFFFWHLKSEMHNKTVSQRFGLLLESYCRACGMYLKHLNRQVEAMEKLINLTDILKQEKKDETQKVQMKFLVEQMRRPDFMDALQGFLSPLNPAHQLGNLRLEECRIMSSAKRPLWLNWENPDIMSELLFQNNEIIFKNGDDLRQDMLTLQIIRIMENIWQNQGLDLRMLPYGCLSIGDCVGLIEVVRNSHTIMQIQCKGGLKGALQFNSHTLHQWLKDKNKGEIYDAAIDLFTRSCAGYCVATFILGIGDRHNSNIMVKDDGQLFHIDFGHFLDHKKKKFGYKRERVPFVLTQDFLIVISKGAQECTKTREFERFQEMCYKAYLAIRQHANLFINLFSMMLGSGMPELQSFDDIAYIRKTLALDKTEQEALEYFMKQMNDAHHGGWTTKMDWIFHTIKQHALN
T1 sequence (P27986 whole entry partner): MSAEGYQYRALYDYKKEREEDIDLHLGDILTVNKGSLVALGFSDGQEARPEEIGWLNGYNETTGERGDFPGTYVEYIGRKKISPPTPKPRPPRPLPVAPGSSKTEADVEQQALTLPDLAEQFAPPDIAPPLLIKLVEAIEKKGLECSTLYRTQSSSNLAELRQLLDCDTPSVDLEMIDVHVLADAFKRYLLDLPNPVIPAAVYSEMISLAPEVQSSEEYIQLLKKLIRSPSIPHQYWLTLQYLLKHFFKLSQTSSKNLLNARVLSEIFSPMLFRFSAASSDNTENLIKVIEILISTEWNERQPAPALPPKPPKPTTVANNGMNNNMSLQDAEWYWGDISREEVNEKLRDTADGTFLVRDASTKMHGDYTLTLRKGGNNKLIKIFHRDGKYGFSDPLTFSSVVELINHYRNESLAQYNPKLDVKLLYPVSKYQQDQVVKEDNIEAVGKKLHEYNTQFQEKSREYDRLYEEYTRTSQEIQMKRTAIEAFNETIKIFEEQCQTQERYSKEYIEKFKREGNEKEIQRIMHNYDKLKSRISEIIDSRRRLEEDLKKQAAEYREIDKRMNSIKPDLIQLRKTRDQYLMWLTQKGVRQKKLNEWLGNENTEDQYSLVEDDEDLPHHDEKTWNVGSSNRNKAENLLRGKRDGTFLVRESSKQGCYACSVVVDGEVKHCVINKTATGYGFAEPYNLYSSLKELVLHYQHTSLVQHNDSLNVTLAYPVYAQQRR
Outline: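 Luminescent ADP-Glo detection, after depletion of residual ATP, quantified ADP made by PI3Kα phosphorylating 20 μM PIP2 at 10 μM ATP. The kinase step ran 30 min at room temperature in HEPES pH 7.4 with MgCl2, DTT and orthovanadate, using baculovirus/Sf9-expressed full-length p110α/p85α complex.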

[11] = tested on: HDACs (HeLa cell nuclear extracts); assay: HDAC enzymatic activity, Biomol Color de Lys system; type: biochemical; conditions: 1 hour, 25° C.
Outline: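 IC50 from sigmoidal fit of developer-terminated fluorescence (ex 350-380/em 440-460 nm). Reaction: 1 h at room temperature (25 °C), HeLa nuclear extract as HDAC source, artificial substrate, buffer of 50 mM Tris/Cl pH 8.0 with 137 mM NaCl, 2.7 mM KCl and 1 mM MgCl2.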

[12] = molecular target: T2, PI3Kβ (p110β/p85α) (Homo sapiens, UniProt P42338); assay: PI3Kβ ADP-Glo assay; type: biochemical; conditions: 20 μM PIP2, 10 μM ATP, 90 minutes
T2 construct: His (N); made in house; host or cells: Baculovirus-infected Sf9 cells
T2 sequence (P42338 whole entry): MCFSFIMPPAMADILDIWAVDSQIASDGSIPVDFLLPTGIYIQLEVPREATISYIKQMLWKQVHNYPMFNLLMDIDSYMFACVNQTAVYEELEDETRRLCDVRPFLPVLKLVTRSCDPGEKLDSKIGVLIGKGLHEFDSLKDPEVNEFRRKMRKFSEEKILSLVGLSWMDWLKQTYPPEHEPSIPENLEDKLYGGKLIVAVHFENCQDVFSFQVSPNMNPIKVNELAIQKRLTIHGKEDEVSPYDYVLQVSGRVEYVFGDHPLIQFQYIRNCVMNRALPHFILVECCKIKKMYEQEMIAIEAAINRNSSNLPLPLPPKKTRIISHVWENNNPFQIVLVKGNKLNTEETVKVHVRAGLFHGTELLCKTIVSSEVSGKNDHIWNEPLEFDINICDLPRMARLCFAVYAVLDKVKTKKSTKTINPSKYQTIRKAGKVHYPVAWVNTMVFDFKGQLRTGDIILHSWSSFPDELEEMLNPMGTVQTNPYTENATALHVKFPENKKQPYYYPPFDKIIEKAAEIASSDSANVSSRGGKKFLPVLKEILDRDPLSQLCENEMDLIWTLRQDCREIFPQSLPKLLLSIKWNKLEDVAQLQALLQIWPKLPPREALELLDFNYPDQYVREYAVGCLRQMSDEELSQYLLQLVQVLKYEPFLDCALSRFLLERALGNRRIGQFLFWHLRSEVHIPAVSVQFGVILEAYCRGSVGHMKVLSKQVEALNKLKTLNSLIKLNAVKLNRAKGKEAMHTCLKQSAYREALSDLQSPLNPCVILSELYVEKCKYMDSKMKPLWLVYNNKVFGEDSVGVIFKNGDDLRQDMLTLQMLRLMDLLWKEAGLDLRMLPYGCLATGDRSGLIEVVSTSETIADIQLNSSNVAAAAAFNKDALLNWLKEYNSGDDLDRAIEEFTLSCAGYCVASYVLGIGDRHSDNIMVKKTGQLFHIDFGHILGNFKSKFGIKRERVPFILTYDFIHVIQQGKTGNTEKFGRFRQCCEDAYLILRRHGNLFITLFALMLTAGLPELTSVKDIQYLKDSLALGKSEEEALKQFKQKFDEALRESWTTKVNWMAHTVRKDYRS
T2 sequence (P27986 whole entry partner): as the sequence (P27986 whole entry partner) above
Method: (B) an In Vitro Assay which Determines the Ability of a Test Compound to Inhibit PI3Kβ.
(§3) Activity of PI3Kβ was measured using ADP-Glo assay from Promega. P13Kα, a complex of N-terminal His-tagged recombinant full-length human p110β (GenBank, Accession No. NM_006219) and untagged recombinant full length human p85α (GenBank Accession No. XM—043865) were co-expressed in a Baculovirus infected Sf9 cell expression system. The ADP-Glo assay was performed to measure the amount of ADP generated from ATP hydrolysis coupled with PIP2 phosphorylation by the purified recombinant PI3Kβ (p110β/p85α). PI3Kβ was incubated with 20 μM PIP2 substrate in the reaction buffer (10 mM Tris-HCl, pH 7.5, 50 mM NaCl, 5 mM MgCl2, 10 μM ATP and 0.5% DMSO) for 90 minutes at room temperature. The ADP generated was then detected by ADP-Glo assay from Promega, a luminescent ADP detection assay. The ADP-Glo assay is performed in two steps; first, after the kinase reaction, ADP-Glo Reagent is added to terminate the kinase reaction and deplete the remaining ATP. Second, the Kinase Detection Reagent is added to simultaneously convert ADP to ATP and allow the newly synthesized ATP to be measured using a luciferase/luciferin reaction.

[13] = tested on: A549; assay: Cell proliferation assay (CellTiter-Glo); type: cell-based; conditions: Homo sapiens, NSCLC, 72 hours, 0.5% fetal bovine serum, read-out: antiproliferative activity IC50, A549
Method: as §1, §2

[14] = tested on: OPM-2; assay: Cell proliferation assay (CellTiter-Glo); type: cell-based; conditions: Homo sapiens, Multiple Myeloma, 72 hours, 0.5% fetal bovine serum, read-out: antiproliferative activity IC50, OPM-2
Method: as §1, §2

[15] = molecular target: T3, mTor serine/threonine protein kinase (Homo sapiens, UniProt P42345); assay: mTor kinase radioisotope assay; type: biochemical; conditions: 70 uM ATP, 40 minutes; read-out: m-TOR IC50
T3 construct: FLAG; made in house; host or cells: Baculovirus expression system in Sf21 cells
Outline: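 FLAG-tagged full-length recombinant human mTor from baculovirus/Sf21, incubated with p70S6K C-terminal fragment (2 mg/ml) and 70 uM ATP plus 33P-ATP tracer in 50 mM HEPES pH 7.5, 3 mM MnCl2, 40 min at room temperature. Phosphoric acid stop, filtermat capture, scintillation counting; IC50 from sigmoidal dose-response fit.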

[16] = tested on: SWI-116; assay: Cell proliferation assay (CellTiter-Glo); type: cell-based; conditions: Colon; 72 hours, 0.5% fetal bovine serum; read-out: antiproliferative activity IC50, SWI-116
Method: as §1, §2

[17] = molecular target: T4, PI3Kγ (p120γ) (Homo sapiens, UniProt P48736); assay: PI3Kγ ADP-Glo assay; type: biochemical; conditions: 20 μM PIP2, 10 μM ATP, 90 minutes
T4 construct: His (N); made in house; host or cells: Baculovirus-infected Sf9 cells
T4 sequence (P48736 whole entry): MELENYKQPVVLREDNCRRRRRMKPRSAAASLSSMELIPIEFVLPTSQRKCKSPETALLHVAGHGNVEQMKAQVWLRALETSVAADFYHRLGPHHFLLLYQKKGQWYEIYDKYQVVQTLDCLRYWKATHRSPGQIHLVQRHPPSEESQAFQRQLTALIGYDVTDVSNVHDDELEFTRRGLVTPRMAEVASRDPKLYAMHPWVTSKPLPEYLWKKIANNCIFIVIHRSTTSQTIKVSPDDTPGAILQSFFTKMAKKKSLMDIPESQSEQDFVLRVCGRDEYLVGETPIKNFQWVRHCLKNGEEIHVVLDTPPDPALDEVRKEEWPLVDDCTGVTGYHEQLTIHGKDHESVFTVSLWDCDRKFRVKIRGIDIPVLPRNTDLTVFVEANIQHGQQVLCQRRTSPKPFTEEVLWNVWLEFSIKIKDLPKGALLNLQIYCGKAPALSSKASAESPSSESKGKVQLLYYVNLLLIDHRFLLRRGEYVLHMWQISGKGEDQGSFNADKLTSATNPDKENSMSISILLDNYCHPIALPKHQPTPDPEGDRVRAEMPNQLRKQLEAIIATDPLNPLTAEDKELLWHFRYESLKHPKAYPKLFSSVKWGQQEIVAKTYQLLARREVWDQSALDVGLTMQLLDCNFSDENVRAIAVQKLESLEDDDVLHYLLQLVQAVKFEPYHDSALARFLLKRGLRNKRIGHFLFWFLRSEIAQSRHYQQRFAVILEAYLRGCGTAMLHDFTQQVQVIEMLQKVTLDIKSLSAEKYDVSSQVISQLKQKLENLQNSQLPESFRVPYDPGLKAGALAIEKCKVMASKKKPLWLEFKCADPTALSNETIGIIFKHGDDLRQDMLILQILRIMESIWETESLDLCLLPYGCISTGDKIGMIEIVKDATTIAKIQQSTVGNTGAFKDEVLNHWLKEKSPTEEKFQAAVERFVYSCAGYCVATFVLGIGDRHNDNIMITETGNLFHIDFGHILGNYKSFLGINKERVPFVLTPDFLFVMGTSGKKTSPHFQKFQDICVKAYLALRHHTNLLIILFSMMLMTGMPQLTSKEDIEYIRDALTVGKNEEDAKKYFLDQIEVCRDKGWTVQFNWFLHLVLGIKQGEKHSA
Method: (d) an In Vitro Assay which Determines the Ability of a Test Compound to Inhibit PI3Kγ.
as §3, with “PI3Kγ” for “PI3Kβ”, “PI3Kγ,” for “P13Kα, a complex of”, “p120γ” for “p110β”, “AF327656) was expressed” for “NM_006219) and untagged recombinant full length human p85α (GenBank Accession No. XM—043865) were co-expressed”, “PI3Kγ […]. PI3Kγ” for “PI3Kβ (p110β/p85α). PI3Kβ”

[18] = molecular target: T5, PI3Kδ (p110δ/p85α) (Homo sapiens, UniProt O00329); assay: PI3Kδ ADP-Glo assay; type: biochemical; conditions: 20 μM PIP2, 10 μM ATP, 90 minutes
T5 construct: GST (N); made in house; host or cells: Baculovirus-infected Sf9 cells
T5 sequence (O00329 whole entry): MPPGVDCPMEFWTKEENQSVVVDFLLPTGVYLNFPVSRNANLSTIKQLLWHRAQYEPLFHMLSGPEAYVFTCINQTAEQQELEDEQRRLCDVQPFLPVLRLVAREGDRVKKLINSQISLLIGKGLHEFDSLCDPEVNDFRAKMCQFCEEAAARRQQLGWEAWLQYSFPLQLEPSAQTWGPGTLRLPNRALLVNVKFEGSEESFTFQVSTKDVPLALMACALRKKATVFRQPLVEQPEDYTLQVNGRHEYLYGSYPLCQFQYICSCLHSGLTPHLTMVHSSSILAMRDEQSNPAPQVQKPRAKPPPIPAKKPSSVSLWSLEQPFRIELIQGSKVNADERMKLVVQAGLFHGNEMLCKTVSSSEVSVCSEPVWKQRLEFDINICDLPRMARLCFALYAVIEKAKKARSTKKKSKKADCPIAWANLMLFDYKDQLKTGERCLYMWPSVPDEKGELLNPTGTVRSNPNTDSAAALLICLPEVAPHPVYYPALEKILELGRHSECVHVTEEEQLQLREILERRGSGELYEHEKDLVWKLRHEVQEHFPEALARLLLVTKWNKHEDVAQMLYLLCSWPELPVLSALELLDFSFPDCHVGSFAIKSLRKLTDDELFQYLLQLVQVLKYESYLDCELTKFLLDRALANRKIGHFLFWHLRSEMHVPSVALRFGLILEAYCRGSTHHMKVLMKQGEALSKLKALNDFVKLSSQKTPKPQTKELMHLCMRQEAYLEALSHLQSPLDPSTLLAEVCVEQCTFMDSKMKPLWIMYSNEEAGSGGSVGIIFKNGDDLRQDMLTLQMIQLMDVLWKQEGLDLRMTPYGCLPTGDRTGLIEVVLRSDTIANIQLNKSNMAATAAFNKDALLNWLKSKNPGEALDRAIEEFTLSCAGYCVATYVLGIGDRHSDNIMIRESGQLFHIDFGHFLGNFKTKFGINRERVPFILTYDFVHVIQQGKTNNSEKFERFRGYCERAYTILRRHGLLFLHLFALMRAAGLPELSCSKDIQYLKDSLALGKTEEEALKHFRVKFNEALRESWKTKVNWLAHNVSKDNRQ
T5 sequence (P27986 whole entry partner): as the sequence (P27986 whole entry partner) above
Method: (c) an In Vitro Assay which Determines the Ability of a Test Compound to Inhibit PI3Kδ.
as §3, with “PI3Kδ” for “PI3Kβ”, “PI3Kδ,” for “P13Kα,”, “GST-tagged” for “His-tagged”, “p110δ” for “p110β”, “NM_005026)” for “NM_006219)”, “PI3Kδ (p110δ/p85α). PI3Kδ” for “PI3Kβ (p110β/p85α). PI3Kβ”

| SMILES | IC50 [1] [nM] | IC50 [2] [nM] | IC50 [3] [nM] | IC50 [4] [nM] | IC50 [5] [nM] | IC50 [6] [nM] | IC50 [7] [nM] | IC50 [8] [nM] | IC50 [9] [nM] | melting point [°C] | IC50 [10] [nM] | IC50 [11] [nM] | IC50 [12] [nM] | IC50 [13] [nM] | IC50 [14] [nM] | IC50 [15] [nM] | IC50 [16] [nM] | IC50 [17] [nM] | IC50 [18] [nM] |
| --- | --- | --- | --- | --- | --- | --- | --- | --- | --- | --- | --- | --- | --- | --- | --- | --- | --- | --- | --- |
| Cn1c(=O)n(-c2ccc(C(C)(C)C#N)cc2)c2c3cc(-c4cnc5ccccc5c4)ccc3ncc21 [BEZ-235, 2-methyl-2-(4-(3-methyl-2-oxo-8-(quinolin-3-yl)-2,3-dihydro-1H-imidazo[4,5-c]quinolin-1-yl)phenyl)propanenitrile, reference compound] | 10 to 100 | 1000 to 10000 | 1000 to 10000 | 100 to 1000 | 100 to 1000 | 1000 to 10000 | 1000 to 10000 | 1000 to 10000 | > 10000 |  |  |  |  |  |  |  |  |  |  |
| O=C(NO)c1cnc(N(CCO)Cc2cc3nc(-c4cccc5[nH]ncc45)nc(N4CCOCC4)c3s2)nc1 [Compound 86, 2-(((2-(1H-indazol-4-yl)-4-morpholinothieno[3,2-d]pyrimidin-6-yl)methyl)(2-hydroxyethyl)amino)-N-hydroxypyrimidine-5-carboxamide] |  |  |  |  |  |  |  |  |  | 190 to 194 | < 100 | < 100 | < 100 |  |  |  |  |  |  |
| CN(Cc1cc2nc(-c3cnc(N)nc3)nc(N3CCOCC3)c2s1)c1ncc(C(=O)NO)cn1 [Compound 115, 2-(((2-(2-aminopyrimidin-5-yl)-4-morpholinothieno[3,2-d]pyrimidin-6-yl)methyl)(methyl)amino)-N-hydroxypyrimidine-5-carboxamide] |  |  |  |  | 10 to 100 |  |  | 100 to 1000 |  | 175 to 181 | < 100 | < 100 |  | 10 to 100 | 10 to 100 | < 100 |  |  |  |
| CC(c1cc2nc(-c3cccc4[nH]ncc34)nc(N3CCOCC3)c2s1)N(C)c1ncc(C(=O)NO)cn1 (stereo not shown) [Compound 70] |  |  |  |  |  |  |  |  |  |  | < 100 | < 100 |  |  |  | 100 to 1000 | 10 to 100 |  |  |
| O=C(NO)c1cnc(N2CCN(Cc3cc4nc(-c5cccc6[nH]ncc56)nc(N5CCOCC5)c4s3)CC2)nc1 [Compound 14] |  |  |  |  |  |  |  |  |  | 209 to 221 | < 100 | < 100 | < 100 |  |  | 1000 to 10000 |  | < 100 | 100 to 1000 |
| CN(Cc1cc2nc(-c3cccc(CO)c3)nc(N3CCOCC3)c2s1)c1ncc(C(=O)NO)cn1 [Compound 138, N-hydroxy-2-(((2-(3-(hydroxymethyl)phenyl)-4-morpholinothieno[3,2-d]pyrimidin-6-yl)methyl)(methyl)amino)pyrimidine-5-carboxamide] | 10 to 100 | 10 to 100 | 10 to 100 | 10 to 100 | 10 to 100 | 10 to 100 | 10 to 100 | 10 to 100 | 10 to 100 | 160 to 164 | < 100 | < 100 |  |  | < 10 | < 100 |  |  |  |
| O=C(NO)c1cnc(NCc2cc3nc(-c4cccc5[nH]ncc45)nc(N4CCOCC4)c3s2)nc1 [Compound 53, 2-((2-(1H-indazol-4-yl)-4-morpholinothieno[3,2-d]pyrimidin-6-yl)methylamino)-N-hydroxypyrimidine-5-carboxamide] |  |  |  |  |  |  |  |  |  | 234 to 237 | < 100 | < 100 | < 100 |  |  |  |  | < 100 | < 100 |
